The test system of the assay is HCV 1b genotype. Kind of assay: HCV replicon assay (HCV-neo replicon cells, wild-type). Conditions: HCV 1b genotype replicon. In kind it is cell-based, Hepatitis C virus. As for the experimental part:
An HCV Replicon assay was utilized in the present disclosure, and was prepared, conducted and validated as described in commonly owned PCT/US2006/022197 and in O'Boyle et al., Antimicrob. Agents Chemother, 49(4):1346-1353 (April 2005). Assay methods incorporating luciferase reporters have also been used as described (Apath.com).
HCV-neo replicon cells and replicon cells containing resistance substitutions in the NS5A region were used to test the currently described family of compounds.
The compounds were determined to have differing degrees of reduced inhibitory activity on cells containing mutations vs. the corresponding inhibitory potency against wild-type cells. Thus, the compounds of the present disclosure can be effective in inhibiting the function of the HCV NS5A protein and are understood to be as effective in combinations as previously described in application PCT/US2006/022197 and commonly owned WO 04/014852. It should be understood that the compounds of the present disclosure can inhibit multiple genotypes of HCV. […] In one embodiment, compounds of the present disclosure are inhibitory versus 1a, 1b, 2a, 2b, 3a, 4a, and 5a genotypes.

The mark [1] stands for this setting: class symbol, read-out: EC50 Range against HCV 1b.
Where [2] appears, read: Hepatitis C virus, class symbol, read-out: EC50 Range against HCV 1b.

Where two headings read alike, the source gives them in different places.

By EC50 is commonly meant the concentration needed to bring the measured effect to its halfway point.

For `Cn1ccnc1C(O)C(=O)N1CCC[C@H]1C(=O)Nc1ccc(-c2cnc(-c3ccc(NC(=O)[C@@H]4CCCN4C(=O)C(O)c4nccn4C)cc3)o2)cc1` (stereo partly drawn) [Example D-11, (2S,2′S)-N,N′-(4,4′-(oxazole-2,5-diyl)bis(4,1-phenylene))bis(1-(2-hydroxy-2-(1-methyl-1H-imidazol-2-yl)acetyl)pyrrolidine-2-carboxamide)], the EC50 under setting [1] is 1000 to 10000 nM and the EC50 (read-out: EC50 1b) was 2090 nM. On the same counts, the results for `CCOC(=O)c1cc(C(O)C(=O)N2CCC[C@H]2C(=O)Nc2ccc(-c3cnc(-c4ccc(NC(=O)[C@@H]5CCCN5C(=O)C(O)c5c[nH]c(C(=O)OCC)c5)cc4)o3)cc2)c[nH]1` (stereo partly drawn) [Example D-12, diethyl 4,4′-(2,2′-(2S,2′S)-2,2′-(4,4′-(oxazole-2,5-diyl)bis(4,1-phenylene))bis(azanediyl)bis(oxomethylene)bis(pyrrolidine-2,1-diyl)bis(1-hydroxy-2-oxoethane-2,1-diyl))bis(1H-pyrrole-2-carboxylate)] are 1000 to 10000 nM and 2360 nM.

Regarding `O=C(Nc1ccc(-c2cnc(-c3ccc(NC(=O)[C@@H]4CCCN4C(=O)C(O)c4ccccn4)cc3)o2)cc1)[C@@H]1CCCN1C(=O)C(O)c1ccccn1` (stereo partly drawn) [Example D-14, (2S,2′S)-N,N′-(1,3-oxazole-2,5-diyldi-4,1-phenylene)bis(1-(hydroxy(2-pyridinyl)acetyl)-2-pyrrolidinecarboxamide)], the EC50 under setting [2] was 100 to 999 nM. `O=C(Nc1ccc(-c2cnc(-c3ccc(NC(=O)[C@@H]4CCCN4C(=O)C(O)c4c[nH]c5ncccc45)cc3)o2)cc1)[C@@H]1CCCN1C(=O)C(O)c1c[nH]c2ncccc12` (stereo partly drawn) [Example D-15, (2S,2′S)-N,N′-(4,4′-(oxazole-2,5-diyl)bis(4,1-phenylene))bis(1-(2-hydroxy-2-(1H-pyrrolo[2,3-b]pyridin-3-yl)acetyl)pyrrolidine-2-carboxamide)]: the EC50 under setting [1] was in the range of 1000 to 10000 nM and the concentration for a half-maximal effect (EC50) (read-out: EC50 1b) worked out at 6830 nM. The corresponding values for `O=C(Nc1ccc(-c2cnc(-c3ccc(NC(=O)[C@@H]4CCCN4C(=O)C(O)c4c[nH]c5cnccc45)cc3)o2)cc1)[C@@H]1CCCN1C(=O)C(O)c1c[nH]c2cnccc12` (stereo partly drawn) [Example D-17, (2S,2′S)-N,N′-(4,4′-(oxazole-2,5-diyl)bis(4,1-phenylene))bis(1-(2-hydroxy-2-(1H-pyrrolo[2,3-c]pyridin-3-yl)acetyl)pyrrolidine-2-carboxamide)] are 1000 to 10000 nM and 6820 nM. Take `C[C@H](O)[C@@H](NC(=O)c1ccccc1)C(=O)N1CCC[C@H]1C(=O)Nc1ccc(-c2cnc(-c3ccc(NC(=O)[C@@H]4CCCN4C(=O)[C@H](NC(=O)c4ccccc4)[C@H](C)O)cc3)o2)cc1` [Example D-18, (R,S,2S,2′S)-N,N′-(4,4′-(oxazole-2,5-diyl)bis(4,1-phenylene))bis(1-((2R,3S)-2-benzamido-3-hydroxybutanoyl)pyrrolidine-2-carboxamide)]: the EC50 under setting [1] was in the range of 1000 to 10000 nM and the EC50 (read-out: EC50 1b) came to 5960 nM.

Take `CN(C)CC(Oc1ccc(Cl)cc1)C(=O)N1CCC[C@H]1C(=O)Nc1ccc(-c2cnc(-c3ccc(NC(=O)[C@@H]4CCCN4C(=O)C(CN(C)C)Oc4ccc(Cl)cc4)cc3)o2)cc1` (stereo partly drawn) [Example D-19, (2S,2′S)-N,N′-(1,3-oxazole-2,5-diyldi-4,1-phenylene)bis(1-(2-(4-chlorophenoxy)-3-(dimethylamino)propanoyl)-2-pyrrolidinecarboxamide)]: the concentration for a half-maximal effect (EC50) under setting [2] was in the range of 100 to 999 nM.

Regarding `O=C(Nc1ccc(-c2cnc(-c3ccc(NC(=O)[C@@H]4CCCN4C(=O)CC4CC4)cc3)o2)cc1)C1CCCN1C(=O)CC1CC1` (stereo partly drawn) [Example D-20, (2′S)-N,N′-(1,3-oxazole-2,5-diyldi-4,1-phenylene)bis(1-(cyclopropylacetyl)-2-pyrrolidinecarboxamide)], the EC50 under setting [2] fell in the range of 100 to 999 nM. `O=C(Nc1ccc(-c2cnc(-c3ccc(NC(=O)[C@@H]4CCCN4C(=O)C4CCCCN4Cc4ccccc4)cc3)o2)cc1)[C@@H]1CCCN1C(=O)C1CCCCN1Cc1ccccc1` (stereo partly drawn) [Example D-21, (2S,2′S)-N,N′-(1,3-oxazole-2,5-diyldi-4,1-phenylene)bis(1-((1-benzyl-2-piperidinyl)carbonyl)-2-pyrrolidinecarboxamide)]: the EC50 under setting [2] lay within 1000 to 10000 nM. The same measure, in the same setting: then `O=C(Nc1ccc(-c2cnc(-c3ccc(NC(=O)[C@@H]4CCCN4C(=O)C4CCCCN4CC4CCCCC4)cc3)o2)cc1)[C@@H]1CCCN1C(=O)C1CCCCN1CC1CCCCC1` (stereo partly drawn) [Example D-22, (2S,2′S)-N,N′-(1,3-oxazole-2,5-diyldi-4,1-phenylene)bis(1-((1-(cyclohexylmethyl)-2-piperidinyl)carbonyl)-2-pyrrolidinecarboxamide)], with 100 to 999 nM; and `CC1(C(=O)N2CCC[C@H]2C(=O)Nc2ccc(-c3cnc(-c4ccc(NC(=O)[C@@H]5CCCN5C(=O)C5(C)CCC(=O)N5Cc5ccccc5)cc4)o3)cc2)CCC(=O)N1Cc1ccccc1` (stereo partly drawn) [Example D-23, (2S,2′S)-N,N′-(1,3-oxazole-2,5-diyldi-4,1-phenylene)bis(1-((1-benzyl-2-methyl-5-oxo-2-pyrrolidinyl)carbonyl)-2-pyrrolidinecarboxamide)], with 1000 to 10000 nM. For the compound `CC1(C(=O)N2CCC[C@H]2C(=O)Nc2ccc(-c3cnc(-c4ccc(NC(=O)[C@@H]5CCCN5C(=O)C5(C)CCC(=O)N5)cc4)o3)cc2)CCC(=O)N1` (stereo partly drawn) [Example D-24, (2S,2′S)-N,N′-(4,4′-(oxazole-2,5-diyl)bis(4,1-phenylene))bis(1-(2-methyl-5-oxopyrrolidine-2-carbonyl)pyrrolidine-2-carboxamide)], the EC50 was 1000 to 10000 nM under setting [1] and 5140 nM (read-out: EC50 1b).

For the compound `CC1(C)CC(C)(C(=O)N2CCC[C@H]2C(=O)Nc2ccc(-c3cnc(-c4ccc(NC(=O)[C@@H]5CCCN5C(=O)C5(C)CC(C)(C)C(=O)N5)cc4)o3)cc2)NC1=O` (stereo partly drawn) [Example D-25, (2S,2′S)-N,N′-(4,4′-(oxazole-2,5-diyl)bis(4,1-phenylene))bis(1-(2,4,4-trimethyl-5-oxopyrrolidine-2-carbonyl)pyrrolidine-2-carboxamide)], the EC50 is, setting by setting: under setting [1], 1000 to 10000 nM; (read-out: EC50 1b) 5330 nM. The corresponding values for `O=C(Nc1ccc(-c2cnc(-c3ccc(NC(=O)[C@@H]4CCCN4C(=O)[C@@H]4C[C@@H]5C[C@@H]5N4C(=O)c4ccc(Cl)cc4Cl)cc3)o2)cc1)[C@@H]1CCCN1C(=O)[C@@H]1C[C@@H]2C[C@@H]2N1C(=O)c1ccc(Cl)cc1Cl` [Example D-26, (S,S,S,2S,2′S)-N,N′-(4,4′-(oxazole-2,5-diyl)bis(4,1-phenylene))bis(1-((1S,3S,5S)-2-(2,4-dichlorobenzoyl)-2-azabicyclo[3.1.0]hexane-3-carbonyl)pyrrolidine-2-carboxamide)] are 1000 to 10000 nM and 3330 nM. For `CC(C)(C)OC(=O)N1CCCC1C(=O)N1CCCC1C(=O)Nc1ccc(-c2cnc(-c3ccc(NC(=O)C4CCCN4C(=O)C4CCCN4C(=O)OC(C)(C)C)cc3)o2)cc1` [Example D-27, di-tert-butyl (2S,2′S)-2,2′-(1,3-oxazole-2,5-diylbis(4,1-phenylenecarbamoyl(2S)-2,1-pyrrolidinediylcarbonyl))di(1-pyrrolidinecarboxylate)], under setting [1], the EC50 was in the range of 1000 to 10000 nM. With `CC(C)(C)OC(=O)N1CCCC1C(=O)N1CCCC1C(=O)Nc1ccc(-c2cnc(-c3ccc(NC(=O)C4CCCN4C(=O)C4CCCN4C(=O)OC(C)(C)C)cc3)o2)cc1` [Example D-28, di-tert-butyl (2R,2′R)-2,2′-(1,3-oxazole-2,5-diylbis(4,1-phenylenecarbamoyl(2S)-2,1-pyrrolidinediylcarbonyl))di(1-pyrrolidinecarboxylate)], under setting [1], the EC50 was in the range of 1000 to 10000 nM. For the compound `CC(C)(C)OC(=O)N1CCCC1(C)C(=O)N1CCC[C@H]1C(=O)Nc1ccc(-c2cnc(-c3ccc(NC(=O)[C@@H]4CCCN4C(=O)C4(C)CCCN4C(=O)OC(C)(C)C)cc3)o2)cc1` (stereo partly drawn) [Example D-29, di-tert-butyl 2,2′-(1,3-oxazole-2,5-diylbis(4,1-phenylenecarbamoyl(2S)-2,1-pyrrolidinediylcarbonyl))bis(2-methyl-1-pyrrolidinecarboxylate)], under setting [1], the EC50 was in the range of 1000 to 10000 nM. Consider `CC(C)(C)OC(=O)N1CCCC1(C)C(=O)N1CCC[C@H]1C(=O)Nc1ccc(-c2cnc(-c3ccc(NC(=O)[C@@H]4CCCN4C(=O)C4(C)CCCN4C(=O)OC(C)(C)C)cc3)o2)cc1` (stereo partly drawn) [Example D-30, di-tert-butyl 2,2′-(1,3-oxazole-2,5-diylbis(4,1-phenylenecarbamoyl(2S)-2,1-pyrrolidinediylcarbonyl))bis(2-methyl-1-pyrrolidinecarboxylate)], for which the EC50 under setting [1] lay in the range of 1000 to 10000 nM. Same read-out and setting: then `CC(C)(C)OC(=O)N1C(C(=O)N2CCCC2C(=O)Nc2ccc(-c3cnc(-c4ccc(NC(=O)C5CCCN5C(=O)C5CC6CC6N5C(=O)OC(C)(C)C)cc4)o3)cc2)CC2CC21` [Example D-31, di-tert-butyl (1S,3S,5S,1′S,3′S,5′S)-3,3′-(1,3-oxazole-2,5-diylbis(4,1-phenylenecarbamoyl(2S)-2,1-pyrrolidinediylcarbonyl))bis(2-azabicyclo[3.1.0]hexane-2-carboxylate)], with 1000 to 10000 nM; and `CC(C)(C)OC(=O)N1CCCC1(Cc1ccccc1)C(=O)N1CCC[C@H]1C(=O)Nc1ccc(-c2cnc(-c3ccc(NC(=O)[C@@H]4CCCN4C(=O)C4(Cc5ccccc5)CCCN4C(=O)OC(C)(C)C)cc3)o2)cc1` (stereo partly drawn) [Example D-32, di-tert-butyl 2,2′-(1,3-oxazole-2,5-diylbis(4,1-phenylenecarbamoyl(2S)-2,1-pyrrolidinediylcarbonyl))bis(2-benzyl-1-pyrrolidinecarboxylate)], with 1000 to 10000 nM.

(Values after patent US8735398B2 (Bristol-Myers Squibb Company, priority 2009, dated 2014).)
